Data as given in patent US20090053138A1, “Stabilized Aptamers to Platelet Derived Growth Factor and their Use as Oncology Therapeutics” (priority 2002, published 2009).
Like-named read-outs stand apart in the source and are kept apart here. [invdT] = inverted (3'-3') thymidine; d = 2'-deoxy (DNA); m = 2'-O-methyl

Experiments:
[1] = biological target: T1, PDGF BB (Homo sapiens, UniProt P01127); test: 3T3 cell proliferation assay (PDGF-BB induced); assay type: cell-based, rat; parameters: purchased PeproTech, Rocky Hill, N.J; settings: for potency compared to ARC127: tyrosine kinase inhibitors
T1 sequence (P01127 82-190 limits assumed): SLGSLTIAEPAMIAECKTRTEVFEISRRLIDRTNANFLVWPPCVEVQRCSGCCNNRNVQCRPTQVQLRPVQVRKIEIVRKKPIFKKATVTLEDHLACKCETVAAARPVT
Method: 3T3 cells, a rat fibroblast cell line (ATCC, Manassas, Va.), were plated 3,000 cells/well in a 96 well plate one day prior to the start of the assay in 100 ul DMEM/10% FCS. The following day, cells were washed once with straight DMEM and then 75 ul DMEM/0.8% FCS was added to each well. […] Cells were incubated for 3 days. Following incubation 10 ul MTT (Promega, Madison, Wis.) was added to each well and incubated for an additional 1.5 hours. Media was then removed, 200 ul Isopropanol (2-propanol) was added to each well, cells were re-suspended thoroughly and absorbance at 570 nm was read on a 96 well plate reader.
(§1) 3T3 cells, which are derived from a rat fibroblast cell line (ATCC, Manassas, Va.), were used in a proliferation assay to test potency of modified ARC513 aptamers. 3T3 fibroblast cells have PDGF receptors on their cell-surface and respond to mitogen, e.g., PDGF stimulation by proliferation. The assay was performed as follows: 3T3 cells were plated 3,000 cells/well in a 96 well plate one day prior to the start of the assay in 100 ul DMEM/10% FCS. The following day, cells were washed once with straight DMEM and then 75 ul DMEM/0.8% FCS was added to each well. Then 25 ul of PDGF-BB (PeproTech, Rocky Hill, N.J.) at a 50 ng/ml final concentration was added to each well +/− aptamer condition to be tested. […] The functional PDGF aptamer dilutions usually consisted of 6 points in 2-fold serial dilutions.
(§2) Cells were incubated for 3 days. Following incubation 10 ul MTT (Promega, Madison, Wis.) was added to each well and incubated for an additional 1.5 hours. Media was removed, 200 μl Isopropanol (2-propanol) was added to each well, cells were re-suspended thoroughly and absorbance at 570 nm was read on a 96 well plate reader. The present example depicts the potency comparison of PDGF aptamer ARC: 513 to that of ARC 513 variants.
The 3T3 proliferation assay previously described was used to test potency of all PEG conjugated ARC513 variants described immediately above. The assay was performed as follows: 3T3 cells were plated 3,000 cells/well in a 96 well plate one day prior to the start of the assay in 100 ul DMEM/10% FCS. The following day, cells were washed once with straight DMEM and then 75 ul DMEM/0.8% FCS was added to each well. Then 25 ul of PDGF-BB (PeproTech, Rocky Hill, N.J.) at a 50 ng/ml final concentration was added to each well +/− aptamer condition to be tested. […] The functional PDGF aptamer dilutions usually consisted of 6 points in 2-fold serial dilutions.
as §2, with “ARC513” for “ARC: 513”, “PEGylated ARC513 aptamers.” for “ARC 513 variants.”
as §1, with “3T3” for “3T3 cells, which are derived from a rat fibroblast cell line (ATCC, Manassas, Va.), were used in a proliferation assay to test potency of modified ARC513 aptamers. 3T3”, “100 μl” for “100 ul”
as §2, with “[…]” for “μl”, “reader.” for “reader. The present example depicts the potency comparison of PDGF aptamer ARC: 513 to that of ARC 513 variants.”

[2] = biological target: T2, VEGF (Homo sapiens, UniProt P15692); test: Dot-blot binding assay, VEGF
T2 sequence (P15692 27-191 isoform P15692-4): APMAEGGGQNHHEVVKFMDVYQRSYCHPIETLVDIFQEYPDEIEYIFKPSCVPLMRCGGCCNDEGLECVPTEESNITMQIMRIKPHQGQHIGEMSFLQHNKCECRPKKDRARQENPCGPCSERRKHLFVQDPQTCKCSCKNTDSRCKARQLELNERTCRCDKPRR
Method: (§3) Binding data for the constituent aptamers and the multivalent aptamers were collected by dot-blot assays in which radio-labeled aptamer is incubated with protein target and then forced through a sandwich of nitrocellulose over nylon and the results shown in FIG. 22. Protein-associated radio-label is captured on the nitrocellulose membrane while the balance of the radio-label is captured on the nylon membrane. The radio-label data is collected on a phosphorimaging plate. […] The multivalent aptamers TK.131.012.A (SEQ ID NO. 9) and TK.131.012.B (SEQ ID NO. 10) were made synthetically.

[3] = biological target: T1, PDGF BB; test: Dot-blot binding assay, PDGF BB
Method: as §3

[4] = biological target: T1, PDGF BB; test: Competition binding assay, PDGF-BB; parameters: purchased PeproTech, Rocky Hill, N.J; settings: Table 2, mean affinity, competitive binding assay; read-out: Affinity
Method: Binding reactions were carried out in phosphate-buffered saline (Cellgro, Herndon, Va.) containing 0.2 mg/mL bovine serum albumin (NEB) and 0.02 mg/mL tRNA (Sigma, St. Louis, Mo.). The reactions were equilibrated for a period of 15-30 minutes at room temperature, then filtered through a sandwich of nitrocellulose (Protran membrane, Perkin-Elmer, Boston, Mass.) and nylon (Hybond membrane, Amersham, Piscataway, N.J.) membranes to separate target bound aptamer from free aptamer.
Next, a study was done to determine whether ARC126 cross reacted with PDGF-BB of species other than human. Competition binding assays were set up by dot blot analysis, as previously described, using human, rat, and mouse PDGF-BB (PeproTech, Rocky Hill, N.J.).
The competitive binding assay previously described was used to determine the in vitro binding affinity and selectivity of ARC594 for different PDGF isoforms. Different concentrations of unlabeled, competitor aptamer were titrated in separate reactions against a fixed (<0.1 nM) amount of ^32P-radiolabeled ARC594 in buffer containing a fixed amount (0.1 nM) of the aptamer's cognate target (PDGF-BB; PeproTech). UnPEGylated version of ARC594 was radiolabeled at the 5′ terminus by incubation with γ-^32P-ATP (ICN) and polynucleotide kinase (NEB). Binding reactions were carried out in phosphate-buffered saline (Cellgro) containing 0.2 mg/mL bovine serum albumin (NEB) and 0.02 mg/mL tRNA (Sigma). The reactions were equilibrated for a period of 15-30 minutes at room temperature, then filtered through a sandwich of nitrocellulose (Protran membrane, Perkin-Elmer) and nylon (Hybond membrane, Amersham) membranes to separate target bound aptamer from free aptamer. […] The data was expressed as the ratio of the counts per minute (CPM) of radioactivity due to ^32P-ARC594 bound to PDGF BB on the nitrocellulose membrane (CPMnitrocellulose or CPMnc) over the total CPM (CPMtotal=CPMnitrocellulose+CPMnylon).

[5] = tested on: LS174T colon cancer xenograft; settings: Experiment 3
Description: Experimental overview. Human HT-29 or LS174T colon cancer xenotransplants were established in athymic nude mice (Nu/Nu mice, Charles River Labs, Wilmington, Mass.) by injecting mice with 1×10^7 HT29 cells (ATCC, Manassas, Va.), or 2×10^6 LS174T cells (ATCC Manassas, Va.) sub-cutaneously and allowing the tumors to grow for 5 days. On day 5, two dimensional measurements of the established tumors were taken using a digital caliper. Once tumor measurements were taken, the mice were randomized into groups such that the average tumor size was the same in each group. […]
A third experiment (Experiment 3) was designed to test ARC308/irinotecan and GLEEVEC™/irinotecan dosing regimens in a colon cancer xenotransplant model using human colon carcinoma cell line LS174T (ATCC). […] ARC308 was dosed via intraperitoneal delivery at 50 mg/kg once daily, and GLEEVEC™ was dosed at 50 mg/kg once daily, Monday through Friday. ARC308 prevents PDGF-BB from binding the PDGF receptor; this molecule has a 30K PEG attached. […] The results are statistically significant (two tailed students T-test).
An efficacy analysis of three treatment groups in this study is shown in Table 10 in terms of log cell kill and log cell kill net. Log cell kill is the log(base10) of the number of tumor cells before treatment divided by the number of cells after treatment. […] A fourth experiment (Experiment 4) was designed to further test ARC308/irinotecan dosing regimens in a colon cancer xenotransplant model using human colon carcinoma cell line LS174T (ATCC). […]

[6] = Table 2, mean activity, 3T3 proliferation assay, read-out: Activity

Cc1cc2ncc(-c3ccc(O)c(O)c3)nc2cc1C [AG 1433, reference compound]
unspecific toxic effects, concentration from which visible ([1]; signal lower than no treatment): ≥ 300 nM
potency compared to ARC127 [1]: much worse potencies

Cc1cc2ncc(-c3ccccc3)nc2cc1C [AG 1295, reference compound]
potency compared to ARC127 [1]: much worse potencies

5′-mAmUmGmCmAmGmUmUmUmGmAmGmAmAmGmUmCmGmCmGmCmAmU-[3T]-3′ (SEQ ID NO: 7) (AUGCAGUUUGAGAAGUCGCGCAU; all 2'-O-methyl, [invdT] at 3' end, backbone not given here) [ARC245]
Kd [2]: ~2 nM

TK.131.012.A: PDGF/VEGF binding multivalent aptamer (SEQ ID NO:9) (CAGGCTACGAUGCAGUUUGAGAAGUCGCGCAUCGTAGAGCATCAGAAATGATCCTG; sugars from the 5' end d9 m23 d24, 3' [invdT], backbone not given here; further chemistry not fully specified)
Kd [3]: ~10 nM
Kd [2]: ~10 nM

124 (ACCATGATCCTGTG; 3' inverted dT, further chemistry not given here) [compound 124]
IC50 [1, 6]: 3.45 nM
IC50 ([1]; Table 6, PDGF-BB 50 ng/ml, nM, read-out: Mean IC50): 20.7 nM
Kd [4]: 0.21 nM

TK.131.012.B: PDGF/VEGF binding multivalent aptamer (SEQ ID NO: 10) (CAGGCTACGUGCAGUUUGAGAAGUCGCGCACGTAGAGCATCAGAAATGATCCTG; sugars from the 5' end d9 m21 d24, 3' [invdT], backbone not given here; further chemistry not fully specified)
Kd [3]: ~10 nM
Kd [2]: ~5 nM

5′-(SEQ ID NO: 36)-PEG-(SEQ ID NO: 37)-PEG-(SEQ ID NO: 38)-[3′]-3′ (chain 1 CAGGCTACG; chain 2 CGTAGAGCATCA; chain 3 TGATCCTG; piece 1: 2'-O-methyl at 9, other sugars and backbone not given here; piece 2: 2'-O-methyl at 5, 7, 12, other sugars and backbone not given here; piece 3: 2'-O-methyl at 8, other sugars and backbone not given here; further chemistry not fully specified) [ARC276]
IC50 [1, 6]: 18 nM
Kd [4]: 0.23 nM

CCc1c2c(nc3ccc(OC(=O)N4CCC(N5CCCCC5)CC4)cc13)-c1cc3c(c(=O)n1C2)COC(=O)[C@]3(O)CC [Irinotecan, irinotecan, reference compound]
Activity Assessment [5]: Active
Log cell kill ([5]; target size 1000 mm^3, ARC308 50 mg/kg, irinotecan 150 mg/kg, combination extrapolated): 1.95
Log cell kill net ([5]; treatment duration 18 days, combination extrapolated): 0.28

5′-(SEQ ID NO: 69)-PEG-(SEQ ID NO: 40)-PEG-(SEQ ID NO: 70)-[3′T]-3′ (chain 1 CCCAGGCTACG; chain 2 CGTAGAGCAUCA; chain 3 TGATCCTGGG; piece 1: 2'-O-methyl at 11, other sugars and backbone not given here; piece 2: 2'-O-methyl at 5, 7, 10, 11, 12, other sugars and backbone not given here; piece 3: 2'-O-methyl at 5, 8, 9, 10, 3' [invdT], other sugars and backbone not given here; pieces joined by PEG spacers) [ARC513]
IC50 ([1]; PDGF-BB 50 ng/ml, read-out: IC50 values routinely displayed): < 10 nM

SEQ ID NO: 42-PEG-SEQ ID NO: 43-PEG-SEQ ID NO: 44 (chain 1 CAGGCTACG; chain 2 CGTAGAGCATCA; chain 3 TGATCCTG; DNA, backbone not given here; PEG-6 spacers join the three pieces) [ARC299]
binding affinity and cell-based assay activity (in words) ([1]; in vitro biochemical binding and cell-based proliferation assays): significantly reduced activity/potency
